Reference: PMC9596378, “Discovery and molecular basis of subtype-selective cyclophilin inhibitors” (Nature Chemical Biology, 2022)
Several values for one entry are separate records, joined by “and”; a condition that tells them apart may be missing. Identical values can stand only once. Like-named read-outs stand apart in the source and are kept apart here.

How the values were obtained:
Test in all cases: Chymotrypsin coupled prolyl-isomerase assay
[1] = target: CypD (Homo sapiens, UniProt P30405); details: for prolyl-isomerase activity (raw dose-response value): CypD
[2] = target: T1, CypA (Homo sapiens, UniProt P62937); type: biochemical; details: for prolyl-isomerase activity (raw dose-response value): CypA, in s^-1
T1 construct: PPIA (UniProtKB Entry P62937: residues 1–165); made in house; host or cells: E. coli BL21(DE3)
Procedure, shortened: (§1)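 Recombinant cyclophilin (5 nM final) in 25 mM HEPES pH 7.3, 100 mM NaCl, 0.01% Triton X-100 was preincubated with compound at 2–3 °C. It was then coupled with 25 µM α-chymotrypsin and 5 µM Suc-AAPF-AMC (LiCl/TFE), and AMC fluorescence was followed for 330 s.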

[3] = target: T2, CypG (Homo sapiens, UniProt Q13427); type: biochemical; details: for prolyl-isomerase activity (raw dose-response value): CypG, in s^-1
T2 construct: PPIG (UniProtKB Entry Q13427: residues 1–179); His6 with thrombin site (pET28a LIC leader) (N); host or cells: E. coli BL21(DE3)
T2 sequence (Q13427 1-179): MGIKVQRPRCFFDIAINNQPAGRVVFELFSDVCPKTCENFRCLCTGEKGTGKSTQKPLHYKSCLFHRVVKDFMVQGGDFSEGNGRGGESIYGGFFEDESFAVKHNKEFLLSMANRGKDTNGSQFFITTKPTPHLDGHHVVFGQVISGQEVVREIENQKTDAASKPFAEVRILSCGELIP
Procedure, shortened: as §1

[4] = target: T3, CypH (Homo sapiens, UniProt O43447); type: biochemical; details: for prolyl-isomerase activity (raw dose-response value): CypH
T3 construct: PPIH (UniProtKB Entry O43447: residues 1–177); His6 with TEV site (2BT vector leader) (N); made in house; host or cells: E. coli BL21(DE3)
Procedure, shortened: as §1

[5] = target: T4, PPIL1 (Homo sapiens, UniProt Q9Y3C6); type: biochemical
T4 construct: PPIL1 (UniProtKB Entry Q9Y3C6: residues 1–166); made in house; host or cells: E. coli BL21(DE3)
T4 sequence (Q9Y3C6 1-166): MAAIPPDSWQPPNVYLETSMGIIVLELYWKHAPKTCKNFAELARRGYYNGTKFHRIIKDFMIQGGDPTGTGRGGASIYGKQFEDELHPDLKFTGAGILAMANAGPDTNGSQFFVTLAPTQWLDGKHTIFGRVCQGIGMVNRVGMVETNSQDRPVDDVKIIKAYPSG

[6] = target: T5, PPWD1 (Homo sapiens, UniProt Q96BP3); type: biochemical; details: for prolyl-isomerase activity (raw dose-response value): in s^-1
T5 construct: PPWD1 (UniProtKB Entry Q96BP3: residues 473–646); host or cells: E. coli BL21(DE3)
T5 sequence (Q96BP3 473-646): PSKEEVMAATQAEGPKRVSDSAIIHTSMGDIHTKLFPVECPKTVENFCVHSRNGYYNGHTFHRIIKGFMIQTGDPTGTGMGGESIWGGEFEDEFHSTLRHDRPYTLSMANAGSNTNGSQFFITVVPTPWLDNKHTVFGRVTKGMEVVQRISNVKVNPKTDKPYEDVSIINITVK
Protocol: Five microliters of compound pre-dissolved in 5% DMSO/assay buffer was then added to appropriate wells and incubated at 2–3 °C for 5 min. Five microliters of 0.5 mM α-chymotrypsin from bovine pancreas (Type II, lyophilized powder, Millipore-Sigma) in 20% 1 mM HCl/Assay Buffer was then added to each well and incubated at 2–3 °C for 5 min. The plate was then quickly transferred to a FLIPR Tetra High-Throughput Cellular Screening System (Molecular Devices). Using the internal liquid handling system of the FLIPR, 1 µL 0.5 mM Suc-AAPF-AMC (Chymotrypsin Substrate II, Millipore-Sigma) dissolved in 0.55 M LiCl/2,2,2-trifluoroethanol was added to each well, which was then mixed for 5 s, followed by immediate fluorescence measurements every 1 s for 330 s using a 360–380 nm excitation LED module and a 400–460 nm emission filter. […] Raw fluorescence data was analyzed by non-linear regression analysis with Prism v.9 by fitting one-phase association curves to each well. Analyses were halted after the calculated maximum fluorescent value owing to observed fluorescent bleaching during the sustained fluorescent plateau. Rate constants calculated for each well (s^−1) were then normalized to substrate only (no prolyl-isomerase) and enzyme + substrate only controls.

T1 sequence (P62937 whole entry, the tested form may be a part): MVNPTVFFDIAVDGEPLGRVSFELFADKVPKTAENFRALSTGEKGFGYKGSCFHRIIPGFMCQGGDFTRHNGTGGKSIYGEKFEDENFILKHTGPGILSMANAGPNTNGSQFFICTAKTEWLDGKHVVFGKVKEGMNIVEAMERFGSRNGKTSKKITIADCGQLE
T3 sequence (O43447 whole entry, the tested form may be a part): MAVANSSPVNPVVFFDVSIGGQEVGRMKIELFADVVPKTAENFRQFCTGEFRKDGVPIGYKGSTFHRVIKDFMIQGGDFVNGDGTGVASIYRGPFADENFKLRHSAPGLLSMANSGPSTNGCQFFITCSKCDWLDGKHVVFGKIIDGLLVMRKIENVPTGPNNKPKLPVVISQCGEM
Chain of CypD (P30405 45-207): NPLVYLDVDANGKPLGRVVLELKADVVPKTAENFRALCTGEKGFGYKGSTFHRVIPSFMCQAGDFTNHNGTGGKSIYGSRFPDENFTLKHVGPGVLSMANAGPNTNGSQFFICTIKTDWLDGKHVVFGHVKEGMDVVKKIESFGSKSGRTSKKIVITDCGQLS

Structure (SMILES): NCCOCCNC(=O)[C@@H]1CCNC(=O)/C=C/C(=O)N2CCC[C@](Cc3ccccc3)(C2)C(=O)N[C@@H](Cc2ccc(-c3ccccc3)cc2)C(=O)NCc2ccccc2CC(=O)N1 [Compound B2]
- IC50 [1]: 0.18 µM
- prolyl-isomerase activity (raw dose-response value) ([1]; dose 0.0195312 µM): 0.1243 and 0.1374 and 0.1472
- prolyl-isomerase activity (raw dose-response value) ([1]; dose 0.0390625 µM): 0.1094 and 0.1294 and 0.1367
- prolyl-isomerase activity (raw dose-response value) ([1]; dose 0.078125 µM): 0.0906 and 0.1127 and 0.1064
- prolyl-isomerase activity (raw dose-response value) ([1]; dose 0.15625 µM): 0.06823 and 0.08697 and 0.08033
- prolyl-isomerase activity (raw dose-response value) ([1]; dose 0.3125 µM): 0.0483 and 0.05915 and 0.05559
- prolyl-isomerase activity (raw dose-response value) ([1]; dose 0.625 µM): 0.03197 and 0.04004 and 0.03906
- prolyl-isomerase activity (raw dose-response value) ([1]; dose 1.25 µM): 0.02117 and 0.02794 and 0.0263
- prolyl-isomerase activity (raw dose-response value) ([1]; dose 2.5 µM): 0.0143 and 0.01947 and 0.02017
- prolyl-isomerase activity (raw dose-response value) ([1]; dose 5 µM): 0.01132 and 0.01248 and 0.01357
- prolyl-isomerase activity (raw dose-response value) ([2]; dose 0.00457247 µM): 0.09251 and 0.1054 and 0.1209
- prolyl-isomerase activity (raw dose-response value) ([2]; dose 0.0137174 µM): 0.07185 and 0.09383 and 0.08908
- prolyl-isomerase activity (raw dose-response value) ([2]; dose 0.0411523 µM): 0.0832 and 0.08759 and 0.09561
- prolyl-isomerase activity (raw dose-response value) ([2]; dose 0.123457 µM): 0.08468 and 0.0712 and 0.08817
- prolyl-isomerase activity (raw dose-response value) ([2]; dose 0.37037 µM): 0.0566 and 0.04501 and 0.06387
- prolyl-isomerase activity (raw dose-response value) ([2]; dose 1.11111 µM): 0.03625 and 0.03272 and 0.04381
- prolyl-isomerase activity (raw dose-response value) ([2]; dose 3.33333 µM): 0.02153 and 0.02404 and 0.02804
- prolyl-isomerase activity (raw dose-response value) ([2]; dose 10 µM): 0.01608 and 0.01935 and 0.02238
- IC50 ([2]; wild-type CypA, read-out: Wild-Type Cyclophilin Prolyl Isomerase Inhibition IC50 Values, CypA): 0.24 µM
- prolyl-isomerase activity (raw dose-response value) ([3]; dose 6.25 µM): 0.07439 and 0.0801 and 0.0712
- prolyl-isomerase activity (raw dose-response value) ([3]; dose 12.5 µM): 0.06556 and 0.07016 and 0.06297
- prolyl-isomerase activity (raw dose-response value) ([3]; dose 25 µM): 0.0539 and 0.06023 and 0.05271
- prolyl-isomerase activity (raw dose-response value) ([3]; dose 50 µM): 0.04026 and 0.03816 and 0.04547
- prolyl-isomerase activity (raw dose-response value) ([3]; dose 100 µM): 0.02765 and 0.03143
- IC50 ([3]; wild-type CypG, read-out: Wild-Type Cyclophilin Prolyl Isomerase Inhibition IC50 Values, CypG): 37 µM
- prolyl-isomerase activity (raw dose-response value) ([4]; dose 0.0228624 µM): 0.05989 and 0.06269 and 0.07687
- prolyl-isomerase activity (raw dose-response value) ([4]; dose 0.0685871 µM): 0.06674 and 0.06641 and 0.06471
- prolyl-isomerase activity (raw dose-response value) ([4]; dose 0.205761 µM): 0.06507 and 0.06674 and 0.06594
- prolyl-isomerase activity (raw dose-response value) ([4]; dose 0.617284 µM): 0.06577 and 0.07132 and 0.06657
- prolyl-isomerase activity (raw dose-response value) ([4]; dose 1.85185 µM): 0.06049 and 0.06065 and 0.0705
- prolyl-isomerase activity (raw dose-response value) ([4]; dose 5.55556 µM): 0.06127 and 0.06318 and 0.06895
- prolyl-isomerase activity (raw dose-response value) ([4]; dose 16.6667 µM): 0.05909 and 0.0562 and 0.05955
- prolyl-isomerase activity (raw dose-response value) ([4]; dose 50 µM): 0.04477 and 0.04513 and 0.04995
- IC50 ([4]; prolyl-isomerase inhibition, 5 nM cyclophilin, read-out: IC50 CypH): ~100 µM
- IC50 ([4]; wild-type CypH, read-out: Wild-Type Cyclophilin Prolyl Isomerase Inhibition IC50 Values, CypH): 100 µM
- prolyl-isomerase activity (raw dose-response value) ([5]; PPIL1, dose 0.0228624 µM): 0.08321 and 0.1059 and 0.1063
- prolyl-isomerase activity (raw dose-response value) ([5]; PPIL1, dose 0.0685871 µM): 0.0991 and 0.07246 and 0.09332
- prolyl-isomerase activity (raw dose-response value) ([5]; PPIL1, dose 0.205761 µM): 0.0916 and 0.08667 and 0.07563
- prolyl-isomerase activity (raw dose-response value) ([5]; PPIL1, dose 0.617284 µM): 0.08092 and 0.07121 and 0.1066
- prolyl-isomerase activity (raw dose-response value) ([5]; PPIL1, dose 1.85185 µM): 0.07438 and 0.05377 and 0.06473
- prolyl-isomerase activity (raw dose-response value) ([5]; PPIL1, dose 5.55556 µM): 0.04981 and 0.03892 and 0.03912
- prolyl-isomerase activity (raw dose-response value) ([5]; PPIL1, dose 16.6667 µM): 0.02881 and 0.02468 and 0.02483
- prolyl-isomerase activity (raw dose-response value) ([5]; PPIL1, dose 50 µM): 0.01705 and 0.01748 and 0.0139
- IC50 ([5]; wild-type PPIL1, read-out: Wild-Type Cyclophilin Prolyl Isomerase Inhibition IC50 Values, PPIL1): 1.9 µM
- prolyl-isomerase activity (raw dose-response value) ([6]; PPWD1, dose 0.00976562 µM): 0.06958 and 0.06894 and 0.06376
- prolyl-isomerase activity (raw dose-response value) ([6]; PPWD1, dose 0.0195312 µM): 0.07052 and 0.06933 and 0.06942
- prolyl-isomerase activity (raw dose-response value) ([6]; PPWD1, dose 0.0390625 µM): 0.07199 and 0.07365 and 0.06621
- prolyl-isomerase activity (raw dose-response value) ([6]; PPWD1, dose 0.078125 µM): 0.0685 and 0.06494 and 0.06712
- prolyl-isomerase activity (raw dose-response value) ([6]; PPWD1, dose 0.15625 µM): 0.06342 and 0.0629 and 0.06451
- prolyl-isomerase activity (raw dose-response value) ([6]; PPWD1, dose 0.3125 µM): 0.06089 and 0.06073 and 0.06267
- prolyl-isomerase activity (raw dose-response value) ([6]; PPWD1, dose 0.625 µM): 0.0549 and 0.05757 and 0.05993
- prolyl-isomerase activity (raw dose-response value) ([6]; PPWD1, dose 1.25 µM): 0.05311 and 0.05273 and 0.05312
- prolyl-isomerase activity (raw dose-response value) ([6]; PPWD1, dose 2.5 µM): 0.04134 and 0.04153 and 0.04427
- prolyl-isomerase activity (raw dose-response value) ([6]; PPWD1, dose 5 µM): 0.03369 and 0.0291 and 0.03053
- prolyl-isomerase activity (raw dose-response value) ([6]; PPWD1, dose 10 µM): 0.0224 and 0.02303 and 0.02481
- IC50 ([6]; wild-type PPWD1, read-out: Wild-Type Cyclophilin Prolyl Isomerase Inhibition IC50 Values, PPWD1): 3.2 µM
